According to article PMC4398638 (Bioorganic & medicinal chemistry, 2015):

System: WI-38 human lung fibroblasts (normal) cell line (FR−)
Test: MTT cytotoxicity assay, WI-38 cells
Format: cell-based
Details: normal (WI-38, FR−) cells versus FR-overexpressing cancer cells / free drug

## CC(=O)O[C@@]12CO[C@@H]1C[C@H](O)[C@@]1(C)C(=O)[C@H](OC(=O)C3CC3)C3=C(C)[C@@H](OC(=O)[C@H](OC(=O)Cc4ccccc4SSC(C)CCC(=O)NCCCOCCOCCOCCCNC(=O)c4ccc(CC5CCCCCc6c5nnn6CCOCCOCCOCCNC(=O)CC[C@H](NC(=O)CC[C@H](NC(=O)c5ccc(NCc6cnc7nc(N)[nH]c(=O)c7n6)cc5)C(=O)O)C(=O)N[C@@H](CCCNC(=N)N)C(=O)O)cc4)[C@H](C=C(C)C)NC(=O)OC(C)(C)C)C[C@@](O)([C@@H](OC(=O)c4ccccc4)[C@H]21)C3(C)C (stereo partly shown) [Conjugate 1]
  decrease in cytotoxicity against normal human cells: > 1,000 fold
